{"source": "patent US4002530A", "about": "“6-Aminopenicillanic acid derivative” (Recherche et Industrie Therapeutiques (R.I.T.), priority 1975, dated 1977)", "key": {"[1]": {"test_system": "Proteus mirabilis", "assay": "broth dilution test, minimum inhibitory concentration", "assay_type": "cell-based", "details": "20 h, read-out: Minimum Inhibitory concentration"}, "[2]": {"test_system": "Staphylococcal preparation of β-lactamase", "assay": "destruction by Staphylococcal preparation of β-lactamase (Penase Leo)", "assay_type": "biochemical"}, "[3]": {"test_system": "E. coli Pen. resistant", "assay": "broth dilution test, minimum inhibitory concentration", "assay_type": "cell-based", "details": "Escherichia coli, penicillin resistant, about 20 hours at 35° C, tested as monoammonium salt"}, "[4]": {"test_system": "Gram-positive and Gram-negative microorganisms", "assay": "in vivo activity against microorganisms", "set-up": "species or system mice", "procedure": "(§1) Comparative trials with ampicillin were performed in vivo according to the usual mice protection test procedure. The test compound was administered in graded dilutions to mice either subcutaneously (s.c.) in water or orally (or.) in combination with calcium carbonate one hour after intravenous infection with uniformly lethal doses of the test organism."}, "[5]": {"test_system": "Salmonella typhimurium", "assay": "broth dilution test, minimum inhibitory concentration", "assay_type": "cell-based", "details": "Salmonella enterica, about 20 hours at 35° C, tested as monoammonium salt"}, "[6]": {"test_system": "Proteus morganii", "assay": "broth dilution test, minimum inhibitory concentration", "assay_type": "cell-based", "details": "Morganella morganii, about 20 hours at 35° C, tested as monoammonium salt"}, "[7]": {"test_system": "Staphylococcus aureus Pen.resist.", "assay": "broth dilution test, minimum inhibitory concentration", "assay_type": "cell-based", "details": "penicillin resistant, about 20 hours at 35° C, tested as monoammonium salt"}, "[8]": {"test_system": "Corynebacterium xerosis", "assay": "broth dilution test, minimum inhibitory concentration", "assay_type": "cell-based", "details": "about 20 hours at 35° C, tested as monoammonium salt"}, "[9]": {"test_system": "Klebsiella pneumoniae SK&F 4200", "assay": "mice protection test", "assay_type": "in vivo", "details": "72 h, one hour after intravenous infection, observed 3 days, read-out: ED50 (total dose required to protect 50% of the infected mice)", "procedure": "as §1"}, "[10]": {"test_system": "Shigella flexneri 25", "assay": "mice protection test", "assay_type": "in vivo", "details": "Shigella flexneri, 25, sc, 72 h; s.c., one hour after intravenous infection, observed 3 days; read-out: ED50 (total dose required to protect 50% of the infected mice)", "procedure": "as §1"}, "[11]": {"test_system": "Salmonella brandebourg 22", "assay": "mice protection test", "assay_type": "in vivo", "details": "Salmonella, 22, sc, 72 h; s.c., one hour after intravenous infection, observed 3 days; read-out: ED50 (total dose required to protect 50% of the infected mice)", "procedure": "as §1"}, "[12]": {"test_system": "Staphylococcus aureus 663", "assay": "mice protection test", "assay_type": "in vivo", "details": "Staphylococcus aureus, 663, sc, 72 h; s.c., one hour after intravenous infection, observed 3 days; read-out: ED50 (total dose required to protect 50% of the infected mice)", "procedure": "as §1"}, "[13]": {"test_system": "Escherichia coli 47", "assay": "mice protection test", "assay_type": "in vivo", "details": "Escherichia coli, 47, sc, 72 h; s.c., one hour after intravenous infection, observed 3 days; read-out: ED50 (total dose required to protect 50% of the infected mice)", "procedure": "as §1"}, "[14]": {"test_system": "Proteus mirabilis 11", "assay": "mice protection test", "assay_type": "in vivo", "details": "Proteus mirabilis, 11, sc, 72 h; s.c., one hour after intravenous infection, observed 3 days; read-out: ED50 (total dose required to protect 50% of the infected mice)", "procedure": "as §1"}, "[15]": {"test_system": "Escherichia coli 9", "assay": "mice protection test", "assay_type": "in vivo", "details": "Escherichia coli, 9, sc, 72 h; s.c., one hour after intravenous infection, observed 3 days; read-out: ED50 (total dose required to protect 50% of the infected mice)", "procedure": "as §1"}, "[16]": {"test_system": "Vibrio parahaemoliticus 194", "assay": "mice protection test", "assay_type": "in vivo", "details": "Vibrio, 194, 72 h; oral with calcium carbonate, one hour after intravenous infection, observed 3 days; read-out: ED50 (total dose required to protect 50% of the infected mice)", "procedure": "as §1"}, "[17]": {"test_system": "Salmonella panama 20", "assay": "mice protection test", "assay_type": "in vivo", "details": "Salmonella enterica, 20, sc, 72 h; s.c., one hour after intravenous infection, observed 3 days; read-out: ED50 (total dose required to protect 50% of the infected mice)", "procedure": "as §1"}, "[18]": {"test_system": "Salmonella enteritidis 24", "assay": "mice protection test", "assay_type": "in vivo", "details": "Salmonella enterica, sc, 72 h, s.c., one hour after intravenous infection, observed 3 days, read-out: ED50 (total dose required to protect 50% of the infected mice)", "procedure": "as §1"}, "[19]": {"test_system": "Salmonella meleagridis", "assay": "broth dilution test, minimum inhibitory concentration", "assay_type": "cell-based", "details": "about 20 hours at 35° C, tested as monoammonium salt"}, "[20]": {"test_system": "Shigella sonnei", "assay": "broth dilution test, minimum inhibitory concentration", "assay_type": "cell-based", "details": "about 20 hours at 35° C, tested as monoammonium salt", "procedure": "(§2) Antibiotic RIT D-2214 has been tested in form of the mono ammonium salt in position 3 of the penam nucleus and, for that reason, is herein below charcterized as this monoammonium salt.\n(§3) The inhibitory levels were determined by the broth dilution test. A series of tubes containing varied concentrations of the monoammonium salt of antibiotic RIT D-2214 were inoculated with the test organism to determine the minimum concentration of the ammonium salt of antibiotic RIT D-2214 in mcg/ml. in the broth substrate which inhibited organism growth for a period of about twenty hours at 35° C."}, "[21]": {"test_system": "Staphylococcus aureus", "assay": "broth dilution test, minimum inhibitory concentration", "assay_type": "cell-based", "details": "about 20 hours at 35° C, tested as monoammonium salt", "procedure": "as §2, §3"}, "[22]": {"test_system": "Brucella abortus", "assay": "microbe, parasite or virus in culture", "assay_type": "cell-based", "details": "20 h, read-out: Minimum Inhibitory concentration"}, "[23]": {"test_system": "Klebsiella pneumoniae", "assay": "broth dilution test, minimum inhibitory concentration", "assay_type": "cell-based", "details": "about 20 hours at 35° C, tested as monoammonium salt"}, "[24]": {"test_system": "Alcaligenes viscolactis", "assay": "agar-diffusion method", "assay_type": "cell-based", "excerpt": "The testing of samples can be carried out by the well known agar-diffusion method on Petri dishes or on plates."}, "[25]": {"assay": "stability in water solution", "assay_type": "physicochemical", "details": "4° C, not more than 7 days"}, "[26]": {"test_system": "Salmonella paratyphi", "assay": "broth dilution test, minimum inhibitory concentration", "assay_type": "cell-based", "details": "Salmonella enterica, 20 h, read-out: Minimum Inhibitory concentration"}, "[27]": {"assay": "in vivo", "set-up": "species or system dogs", "details": "dog, sc, 20 mg/kg", "excerpt": "Plasma samples were adequately diluted with sterile water and assayed according to the usual agar diffusion method, using Bacillus subtilis ATCC 6633 as the test organism."}, "[28]": {"test_system": "Bacillus subtilis", "assay": "broth dilution test, minimum inhibitory concentration", "assay_type": "cell-based", "details": "about 20 hours at 35° C, tested as monoammonium salt"}, "[29]": {"test_system": "Bordetella bronchiseptica", "assay": "broth dilution test, minimum inhibitory concentration", "assay_type": "cell-based", "details": "about 20 hours at 35° C, tested as monoammonium salt"}, "[30]": {"test_system": "Aerobacter aerogenes", "assay": "broth dilution test, minimum inhibitory concentration", "assay_type": "cell-based", "details": "Klebsiella aerogenes, 20 h, read-out: Minimum Inhibitory concentration"}, "[31]": {"test_system": "Salmonella panama", "assay": "broth dilution test, minimum inhibitory concentration", "assay_type": "cell-based", "details": "Salmonella enterica, about 20 hours at 35° C, tested as monoammonium salt"}}, "note": "Read-outs that look alike come from different tables or passages of the source.", "data": [{"smiles": "CC1(C)S[C@@H]2[C@H](NC(=O)CSC[C@@H](N)C(=O)O)C(=O)N2[C@H]1C(=O)O", "note": "[RIT D-2214, 6-(D)-{[(2-amino-2-carboxy)-ethylthio]-acetamido}-penicillanic acid]", "values": [{"measurement": "MIC", "setting": "[1]", "result": 1.25, "unit": "µg/mL"}, {"measurement": "destruction by β-lactamase", "setting": "[2]", "result": "rapidly destroyed"}, {"measurement": "MIC", "setting": "[3]", "result": 80, "unit": "µg/mL"}, {"measurement": "in vivo activity", "setting": "[4]; Gram-positive and Gram-negative microorganisms", "result": "exhibits in vivo activity"}, {"measurement": "efficacy when administered orally", "setting": "[4]; oral", "result": "less advantageous when administered orally"}, {"measurement": "MIC", "setting": "[5]", "result": 40, "unit": "µg/mL"}, {"measurement": "MIC", "setting": "[6]", "result": 40, "unit": "µg/mL"}, {"measurement": "MIC", "setting": "[7]", "result": 80, "unit": "µg/mL"}, {"measurement": "MIC", "setting": "[8]", "result": "< 0.02", "unit": "µg/mL"}, {"measurement": "ED50", "setting": "[9]; oral with calcium carbonate", "result": 25.3, "unit": "mg/kg"}, {"measurement": "ED50", "setting": "[9]; sc, s.c.", "result": "< 11", "unit": "mg/kg"}, {"measurement": "ED50", "setting": "[10]", "result": 52.5, "unit": "mg/kg"}, {"measurement": "ED50", "setting": "[11]", "result": 13, "unit": "mg/kg"}, {"measurement": "ED50", "setting": "[12]", "result": "< 11", "unit": "mg/kg"}, {"measurement": "ED50", "setting": "[13]", "result": "< 10", "unit": "mg/kg"}, {"measurement": "ED50", "setting": "[14]", "result": "< 10", "unit": "mg/kg"}, {"measurement": "ED50", "setting": "[15]", "result": 10.9, "unit": "mg/kg"}, {"measurement": "ED50", "setting": "[16]", "result": 22.7, "unit": "mg/kg"}, {"measurement": "ED50", "setting": "[17]", "result": "< 10", "unit": "mg/kg"}, {"measurement": "ED50", "setting": "[18]", "result": 13.5, "unit": "mg/kg"}, {"measurement": "MIC", "setting": "[19]", "result": 0.6, "unit": "µg/mL"}, {"measurement": "MIC", "setting": "[20]", "result": 20, "unit": "µg/mL"}, {"measurement": "MIC", "setting": "[21]", "result": 1.25, "unit": "µg/mL"}, {"measurement": "MIC", "setting": "[22]", "result": 20, "unit": "µg/mL"}, {"measurement": "MIC", "setting": "[23]", "result": 80, "unit": "µg/mL"}, {"measurement": "sensitivity of Alcaligenes viscolactis", "setting": "[24]", "result": "very high sensitivity"}, {"measurement": "stability in water solution", "setting": "[25]", "result": "relatively stable"}, {"measurement": "MIC", "setting": "[26]", "result": 1.25, "unit": "µg/mL"}, {"measurement": "concentration at 0.25 h", "setting": "[27]", "result": 18000, "unit": "ng/mL"}, {"measurement": "concentration at 0.5 h", "setting": "[27]", "result": 23000, "unit": "ng/mL"}, {"measurement": "concentration at 1 h", "setting": "[27]", "result": 22500, "unit": "ng/mL"}, {"measurement": "concentration at 2 h", "setting": "[27]", "result": 9000, "unit": "ng/mL"}, {"measurement": "MIC", "setting": "[28]", "result": 0.3, "unit": "µg/mL"}, {"measurement": "MIC", "setting": "[29]", "result": 0.6, "unit": "µg/mL"}, {"measurement": "MIC", "setting": "[30]", "result": 1.25, "unit": "µg/mL"}, {"measurement": "MIC", "setting": "[31]", "result": 40, "unit": "µg/mL"}]}]}
